Biological target: Galectin-3 (Homo sapiens, UniProt P17931)
Experiment: Fluorescence Polarization Assay
Details: pH 7.2; 24 °C
Experimental: In fluorescence polarization measurements, a fluorescent probe was excited with plane-polarized light and the degree of polarization remaining in the emitted light is measured. When the probe is bound to protein, it rotates slower than when free, and the remaining fluorescence polarization is higher. The fluorescent anisotropy value for a probe-protein mixture is the average of the value for bound and free probe. For the direct binding asaay, the data (anisotropy, A in mA vs galectin concentration, [G] in uM) were fitted to a simplified formula to obtain Kd.

Sequence of Galectin-3 (P17931 whole entry): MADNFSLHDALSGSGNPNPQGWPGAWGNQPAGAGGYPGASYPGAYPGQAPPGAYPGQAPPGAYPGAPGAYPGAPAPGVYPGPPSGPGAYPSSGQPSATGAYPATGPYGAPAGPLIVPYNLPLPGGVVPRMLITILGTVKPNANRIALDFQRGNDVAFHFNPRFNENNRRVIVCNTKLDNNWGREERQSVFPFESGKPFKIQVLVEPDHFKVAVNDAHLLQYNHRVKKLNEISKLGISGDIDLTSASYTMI

Kd: 380 µM
Compound: CS[C@@H]1O[C@H](CO)[C@H](O)[C@H](NC(=O)c2ccc(C)cc2)[C@H]1OCc1ccccc1 [N-[(2S,3R,4S,5R,6R)-3-(benzyloxy)-5-hydroxy-6-(hydroxymethyl)-2-(methylsulfanyl)oxan-4-yl]-4-methylbenzamide]

Source: BindingDB's records for doi:10.1021/jm701266y (Lund University, 2008)
